Measurements published in US7700782B2, “Compounds 569” (AstraZeneca AB, priority 2007, dated 2010).
Where a name gives a salt, the structure may show the parent alone.

Molecular target: T1, Adrenergic β2 (Homo sapiens, UniProt P07550)
T1 construct: Adherent H292 cells were removed from tissue culture flasks; endogenous in cells; host or cells: H292 cells
Assay: Adrenergic β2 mediated cAMP production in H292 cells (AlphaScreen cAMP detection)
Assay type: cell-based
Settings: Intrinsic Activity, fraction relative to the maximum activity determined for formoterol
Experimental: Adrenergic β2 Mediated cAMP Production
H292 cells were grown in 225 cm2 flasks incubator at 37° C., 5% CO2 in RPMI medium containing, 10% (v/v) FBS (foetal bovine serum) and 2 mM L-glutamine.
Adherent H292 cells were removed from tissue culture flasks by treatment with Accutase™ cell detachment solution for 15 minutes. Flasks were incubated for 15 minutes in a humidified incubator at 37° C., 5% CO2. Detached cells were re-suspended in RPMI media (containing 10% (v/v) FBS and 2 mM L-glutamine) at 0.05×10^6 cells per mL. 5000 cells in 100 μL were added to each well of a tissue-culture-treated 96-well plate and the cells incubated overnight in a humidified incubator at 37° C., 5% CO2. The culture media was removed and cells were washed twice with 100 μL assay buffer and replaced with 50 μL assay buffer (HBSS solution containing 10 mM HEPES pH 7.4 and 5 mM glucose). Cells were rested at room temperature for 20 minutes after which time 25 μL of rolipram (1.2 mM made up in assay buffer containing 2.4% (v/v) dimethylsulphoxide) was added. Cells were incubated with rolipram for 10 minutes after which time test compounds were added and the cells were incubated for 60 minutes at room temperature. The final rolipram concentration in the assay was 300 μM and final vehicle concentration was 1.6% (v/v) dimethylsulphoxide. The reaction was stopped by removing supernatants, washing once with 100 μL assay buffer and replacing with 50 μL lysis buffer. The cell monolayer was frozen at −80° C. for 30 minutes (or overnight).
The concentration of cAMP (cyclic adenosine monophosphate) in the cell lysate was determined using AlphaScreen™ methodology. The frozen cell plate was thawed for 20 minutes on a plate shaker then 10 μL of the cell lysate was transferred to a 96-well white plate. 40 μL of mixed AlphaScreen™ detection beads pre-incubated with biotinylated cAMP, was added to each well and the plate incubated at room temperature for 10 hours in the dark. The AlphaScreen™ signal was measured using an EnVision spectrophotometer (Perkin-Elmer Inc.) with the recommended manufacturer's settings. cAMP concentrations were determined by reference to a calibration curve determined in the same experiment using standard cAMP concentrations. Concentration response curves for agonists were constructed and data was fitted to a four parameter logistic equation to determine both the pEC50 and Intrinsic Activity. Intrinsic Activity was expressed as a fraction relative to the maximum activity determined for formoterol in each experiment.

T1 sequence (P07550 whole entry): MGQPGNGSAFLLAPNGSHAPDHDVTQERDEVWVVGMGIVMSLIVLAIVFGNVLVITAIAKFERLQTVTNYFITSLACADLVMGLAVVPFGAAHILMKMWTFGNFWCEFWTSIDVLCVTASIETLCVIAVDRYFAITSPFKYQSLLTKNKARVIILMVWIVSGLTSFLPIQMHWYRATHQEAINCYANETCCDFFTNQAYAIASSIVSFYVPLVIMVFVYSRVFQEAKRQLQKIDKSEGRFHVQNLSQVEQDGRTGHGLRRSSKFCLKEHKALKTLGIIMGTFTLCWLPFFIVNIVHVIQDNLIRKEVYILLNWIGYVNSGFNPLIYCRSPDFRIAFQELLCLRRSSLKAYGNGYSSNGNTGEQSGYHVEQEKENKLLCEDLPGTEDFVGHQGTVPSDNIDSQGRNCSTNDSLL

| SMILES | β2 Int Act |
| --- | --- |
| CC(C)(C)CN(CCNCCc1ccc(O)c2[nH]c(=O)sc12)C(=O)CCNC(C)(C)Cc1ccccc1 [Example 38, N^3-(1,1-Dimethyl-2-phenylethyl)-N-(2,2-dimethylpropyl)-N-(2-{[2-(4-hydroxy-2-oxo-2,3-dihydro-1,3-benzothiazol-7-yl)ethyl]amino}ethyl)-β-alaninamide bis-trifluoroacetic acid salt] | 0.42 |
| CC(C)(C)CN(CCNCCc1ccc(O)c2[nH]c(=O)sc12)C(=O)CCNCCc1cccc(Cl)c1 [Example 7, N^3-[2-(3-Chlorophenyl)ethyl]-N-(2,2-dimethylpropyl)-N-(2-{[2-(4-hydroxy-2-oxo-2,3-dihydro-1,3-benzothiazol-7-yl)ethyl]amino}ethyl)-β-alaninamide bis-trifluoroacetic acid salt] | 0.68 |
| O=C(CCNCCc1cccc(Cl)c1)N(CCNCCc1ccc(O)c2[nH]c(=O)sc12)C1CCCCCC1 [Example 50, N^3-[2-(3-Chlorophenyl)ethyl]-N^1-cycloheptyl-N^1-(2-{[2-(4-hydroxy-2-oxo-2,3-dihydro-1,3-benzothiazol-7-yl)ethyl]amino}ethyl)-β-alaninamide bis-trifluoroacetic acid salt] | 0.91 |
| O=C(CCNCCc1ccc(F)cc1Cl)N(CCNCCc1ccc(O)c2[nH]c(=O)sc12)C1CCCCCC1 [Example 57, N^3-[2-(2-Chloro-4-fluorophenyl)ethyl]-N^1-cycloheptyl-N^1-(2-{[2-(4-hydroxy-2-oxo-2,3-dihydro-1,3-benzothiazol-7-yl)ethyl]amino}ethyl)-β-alaninamide bis-trifluoroacetic acid salt] | 0.72 |
| O=C(CCNCCc1ccc(Cl)cc1)N(CCNCCc1ccc(O)c2[nH]c(=O)sc12)C1CCCC1 [Example 28, N^3-[2-(4-Chlorophenyl)ethyl]-N-cyclopentyl-N-(2-{[2-(4-hydroxy-2-oxo-2,3-dihydro-1,3-benzothiazol-7-yl)ethyl]amino}ethyl)-β-alaninamide bis-trifluoroacetic acid salt] | 0.87 |
| O=C(CCNCCc1ccccc1)N(CCNCCc1ccc(O)c2[nH]c(=O)sc12)C1CCCCC1 [Example 5, N-Cyclohexyl-N-(2-{[2-(4-hydroxy-2-oxo-2,3-dihydro-1,3-benzothiazol-7-yl)ethyl]amino}ethyl)-N^3-(2-phenylethyl)-β-alaninamide bis-trifluoroacetic acid salt] | 0.83 |
| CC(C)(C)CN(CCNCCc1ccc(O)c2[nH]c(=O)sc12)C(=O)CCNCCc1ccccc1 [Example 6, N-(2,2-Dimethylpropyl)-N-(2-{[2-(4-hydroxy-2-oxo-2,3-dihydro-1,3-benzothiazol-7-yl)ethyl]amino}ethyl)-N^3-(2-phenylethyl)-β-alaninamide bis-trifluoroacetic acid salt] | 0.89 |
| O=C(CCNCCc1ccccn1)N(CCNCCc1ccc(O)c2[nH]c(=O)sc12)C1CCCCC1 [Example 33, N-Cyclohexyl-N-(2-{[2-(4-hydroxy-2-oxo-2,3-dihydro-1,3-benzothiazol-7-yl)ethyl]amino}ethyl)-N^3-(2-pyridin-2-ylethyl)-β-alaninamide bis-trifluoroacetic acid salt] | 0.78 |
| O=C(CCNCCc1ccc(Cl)c(Cl)c1)N(CCNCCc1ccc(O)c2[nH]c(=O)sc12)C1CCC(F)(F)CC1 [Example 49, N^3-[2-(3,4-Dichlorophenyl)ethyl]-N^1-(4,4-difluorocyclohexyl)-N^1-(2-{[2-(4-hydroxy-2-oxo-2,3-dihydro-1,3-benzothiazol-7-yl)ethyl]amino}ethyl)-β-alaninamide bis-trifluoroacetic acid salt] | 0.59 |
| O=C(CCNCCc1cccc(O)c1)N(CCNCCc1ccc(O)c2[nH]c(=O)sc12)C1CCCCC1 [Example 71, N^1-Cyclohexyl-N^1-(2-{[2-(4-hydroxy-2-oxo-2,3-dihydro-1,3-benzothiazol-7-yl)ethyl]amino}ethyl)-N^3-[2-(3-hydroxyphenyl)ethyl]-β-alaninamide bis-trifluoroacetic acid salt] | 0.97 |
| O=C(CCNCCc1ccc(Cl)cc1)N(CCNCCc1ccc(O)c2[nH]c(=O)sc12)C1CCCCC1 [Example 13, N^3-[2-(4-Chlorophenyl)ethyl]-N-cyclohexyl-N-(2-{[2-(4-hydroxy-2-oxo-2,3-dihydro-1,3-benzothiazol-7-yl)ethyl]amino}ethyl)-β-alaninamide bis-trifluoroacetic acid salt] | 0.71 |
| O=C(CCNCCc1ccccc1)N(CCNCCc1ccc(O)c2[nH]c(=O)sc12)C1CCSCC1 [Example 62, N^1-(2-{[2-(4-Hydroxy-2-oxo-2,3-dihydro-1,3-benzothiazol-7-yl)ethyl]amino}ethyl)-N^3-(2-phenylethyl)-N^1-(tetrahydro-2H-thiopyran-4-yl)-β-alaninamide bis-trifluoroacetic acid salt] | 0.87 |
| O=C(CCNCCc1ccccc1Cl)N(CCNCCc1ccc(O)c2[nH]c(=O)sc12)C1CCCC1 [Example 29, N^3-[2-(2-Chlorophenyl)ethyl]-N-cyclopentyl-N-(2-{[2-(4-hydroxy-2-oxo-2,3-dihydro-1,3-benzothiazol-7-yl)ethyl]amino}ethyl)-β-alaninamide bis-trifluoroacetic acid salt] | 0.97 |
| O=C(CCNCCc1cccc(Cl)c1)N(CCNCCc1ccc(O)c2[nH]c(=O)sc12)C1CCOCC1 [Example 22, N^3-[2-(3-Chlorophenyl)ethyl]-N-(2-{[2-(4-hydroxy-2-oxo-2,3-dihydro-1,3-benzothiazol-7-yl)ethyl]amino}ethyl)-N-(tetrahydro-2H-pyran-4-yl)-β-alaninamide bis-trifluoroacetic acid salt] | 0.96 |
| O=C(CCNCCc1cccc(F)c1F)N(CCNCCc1ccc(O)c2[nH]c(=O)sc12)C1CCCCC1 [Example 81, N^1-Cyclohexyl-N^3-[2-(2,3-difluorophenyl)ethyl]-N^1-(2-{[2-(4-hydroxy-2-oxo-2,3-dihydro-1,3-benzothiazol-7-yl)ethyl]amino}ethyl)-β-alaninamide bis-trifluoroacetic acid salt] | 0.89 |
| CCCC(CCC)N(CCNCCc1ccc(O)c2[nH]c(=O)sc12)C(=O)CCNCCc1ccc(F)cc1 [Example 64, N^3-[2-(4-Fluorophenyl)ethyl]-N^1-(2-{[2-(4-hydroxy-2-oxo-2,3-dihydro-1,3-benzothiazol-7-yl)ethyl]amino}ethyl)-N^1-(1-propylbutyl)-β-alaninamide bis-trifluoroacetic acid salt] | 0.70 |
| O=C(CCNCCc1ccc(F)cc1)N(CCNCCc1ccc(O)c2[nH]c(=O)sc12)C1CCCCC1 [Example 16, N-Cyclohexyl-N^3-[2-(4-fluorophenyl)ethyl]-N-(2-{[2-(4-hydroxy-2-oxo-2,3-dihydro-1,3-benzothiazol-7-yl)ethyl]amino}ethyl)-β-alaninamide bis-trifluoroacetic acid salt] | 0.91 |
| O=C(CCNCCc1ccc(F)c(F)c1)N(CCNCCc1ccc(O)c2[nH]c(=O)sc12)C1CCCCC1 [Example 73, N^1-Cyclohexyl-N^3-[2-(3,4-difluorophenyl)ethyl]-N^1-(2-{[2-(4-hydroxy-2-oxo-2,3-dihydro-1,3-benzothiazol-7-yl)ethyl]amino}ethyl)-β-alaninamide bis-trifluoroacetic acid salt] | 0.85 |
| O=C(CCNCCc1cccc(F)c1)N(CCNCCc1ccc(O)c2[nH]c(=O)sc12)C1CCCCCC1 [Example 36, N-Cycloheptyl-N^3-[2-(3-fluorophenyl)ethyl]-N-(2-{[2-(4-hydroxy-2-oxo-2,3-dihydro-1,3-benzothiazol-7-yl)ethyl]amino}ethyl)-β-alaninamide bis-trifluoroacetic acid salt] | 0.84 |
| O=C(CCNCCc1ccccc1)N(CCNCCc1ccc(O)c2[nH]c(=O)sc12)CC12CC3CC(CC(C3)C1)C2 [Example 59, N^1-(1-Adamantylmethyl)-N^1-(2-{[2-(4-hydroxy-2-oxo-2,3-dihydro-1,3-benzothiazol-7-yl)ethyl]amino}ethyl)-N^3-(2-phenylethyl)-β-alaninamide bis-trifluoroacetic acid salt] | 0.85 |
| O=C(CCNCCc1ccc(Cl)c(Cl)c1)N(CCNCCc1ccc(O)c2[nH]c(=O)sc12)C1CCOCC1 [Example 24, N^3-[2-(3,4-Dichlorophenyl)ethyl]-N-(2-{[2-(4-hydroxy-2-oxo-2,3-dihydro-1,3-benzothiazol-7-yl)ethyl]amino}ethyl)-N-(tetrahydro-2H-pyran-4-yl)-β-alaninamide bis-trifluoroacetic acid salt] | 0.77 |
